Data taken from patent publication US5389627A, “Cephem compounds” (priority 1993, dated 1995).
≈ marks a conversion by molar mass, not a printed value.

Key:
Assay in all cases: In vitro antibacterial activity, minimum inhibitory concentration
Type in all cases: cell-based
E.cloacae C4008 = details: Enterobacter cloacae; E.cloacae C4008; read-out: Minimum Inhibitory Concentration (MIC)
From the text: (§1) As reference compounds, Cefotaxime (CTX), Ceftazidime (CAZ) and Cefpirome (CPR) were employed.

E.cloacae C4009 = details: Enterobacter cloacae; E.cloacae C4009; read-out: Minimum Inhibitory Concentration (MIC)
From the text: as §1

E.coli ATCC10536 = details: Escherichia coli; E.coli ATCC10536; read-out: Minimum Inhibitory Concentration (MIC)
From the text: as §1

E.coli ATCC25922 = details: Escherichia coli; E.coli ATCC25922; read-out: Minimum Inhibitory Concentration (MIC)
From the text: as §1

E.coli C4002 = details: Escherichia coli; E.coli C4002; read-out: Minimum Inhibitory Concentration (MIC)
From the text: as §1

K.oxytoca C4022 = details: Klebsiella oxytoca; K.oxytoca C4022; read-out: Minimum Inhibitory Concentration (MIC)
From the text: as §1

K.pneumoniae ATCC10031 = details: Klebsiella pneumoniae; K.pneumoniae ATCC10031; read-out: Minimum Inhibitory Concentration (MIC)
From the text: as §1

K.pneumoniae C1040 = details: Klebsiella pneumoniae; K.pneumoniae C1040; read-out: Minimum Inhibitory Concentration (MIC)
From the text: as §1

MRSA C2208 = details: Staphylococcus aureus; MRSA C2208; read-out: Minimum Inhibitory Concentration (MIC)
From the text: as §1

P.aeruginosa ATCC10145 = details: Pseudomonas aeruginosa; P.aeruginosa ATCC10145; read-out: Minimum Inhibitory Concentration (MIC)
From the text: as §1

P.aeruginosa ATCC27853 = details: Pseudomonas aeruginosa; P.aeruginosa ATCC27853; read-out: Minimum Inhibitory Concentration (MIC)
From the text: as §1

P.aeruginosa C2027 = details: Pseudomonas aeruginosa; P.aeruginosa C2027; read-out: Minimum Inhibitory Concentration (MIC)
From the text: as §1

P.aeruginosa C4070 = details: Pseudomonas aeruginosa; P.aeruginosa C4070; read-out: Minimum Inhibitory Concentration (MIC)
From the text: as §1

P.mirabilis ATCC25933 = details: Proteus mirabilis; P.mirabilis ATCC25933; read-out: Minimum Inhibitory Concentration (MIC)
From the text: as §1

P.rettgeri ATCC9919 = details: Providencia rettgeri; P.rettgeri ATCC9919; read-out: Minimum Inhibitory Concentration (MIC)
From the text: as §1

S.Faecalis ATCC29212 = details: Enterococcus faecalis
From the text: as §1

S.aureus ATCC29213 = details: Staphylococcus aureus; S.aureus ATCC29213; read-out: Minimum Inhibitory Concentration (MIC)
From the text: as §1

S.aureus C4036 = details: Staphylococcus aureus; S.aureus C4036; read-out: Minimum Inhibitory Concentration (MIC)
From the text: as §1

S.aureus Smith = details: Staphylococcus aureus; S.aureus Smith; read-out: Minimum Inhibitory Concentration (MIC)
From the text: as §1

S.epidermidis ATCC12228 = details: Staphylococcus epidermidis; S.epidermidis ATCC12228; read-out: Minimum Inhibitory Concentration (MIC)
From the text: as §1

S.marcescens ATCC27117 = details: Serratia marcescens; S.marcescens ATCC27117; read-out: Minimum Inhibitory Concentration (MIC)
From the text: as §1

S.marcescens C1052 = details: Serratia marcescens; S.marcescens C1052; read-out: Minimum Inhibitory Concentration (MIC)
From the text: as §1

S.pyogenes ATCC 8668 = details: Streptococcus pyogenes, ATCC8668; S.pyogenes ATCC 8668; read-out: Minimum Inhibitory Concentration (MIC)
From the text: as §1

S.pyogenes C4003 = details: Streptococcus pyogenes; S.pyogenes C4003; read-out: Minimum Inhibitory Concentration (MIC)
From the text: as §1

S.typhimurium C4045 = details: Salmonella enterica; S.typhimurium C4045; read-out: Minimum Inhibitory Concentration (MIC)
From the text: as §1

SMILES | MIC (E.cloacae C4008) [µg/mL] | MIC (E.cloacae C4009) [µg/mL] | MIC (E.coli ATCC10536) [µg/mL] | MIC (E.coli ATCC25922) [µg/mL] | MIC (E.coli C4002) [µg/mL] | MIC (K.oxytoca C4022) [µg/mL] | MIC (K.pneumoniae ATCC10031) [µg/mL] | MIC (K.pneumoniae C1040) [µg/mL] | MIC (MRSA C2208) [µg/mL] | MIC (P.aeruginosa ATCC10145) [µg/mL] | MIC (P.aeruginosa ATCC27853) [µg/mL] | MIC (P.aeruginosa C2027) [µg/mL] | MIC (P.aeruginosa C4070) [µg/mL] | MIC (P.mirabilis ATCC25933) [µg/mL] | MIC (P.rettgeri ATCC9919) [µg/mL] | MIC (S.Faecalis ATCC29212) [µg/mL] | MIC (S.aureus ATCC29213) [µg/mL] | MIC (S.aureus C4036) [µg/mL] | MIC (S.aureus Smith) [µg/mL] | MIC (S.epidermidis ATCC12228) [µg/mL] | further results
CO/N=C(\C(=O)N[C@@H]1C(=O)N2C(C(=O)[O-])=C(C[n+]3ccc4c(c3)[nH]c(=O)n4C)CS[C@H]12)c1nsc(N)n1 [Ex. 6, 7-β-[(Z)-2-(5-Amino-1,2,4-thiadiazol-3-yl)-2-methoxyiminoacetamido]-3-[1-methyl-2-(3H)-oxo-imidazo[4,5-c]pyridiniummethyl]-3-cephem-4-carboxylate] | 0.013 (≈ 0.0238 µM) | 0.013 (≈ 0.0238 µM) | 0.007 (≈ 0.0128 µM) | 0.025 (≈ 0.0458 µM) | 0.025 (≈ 0.0458 µM) | 1.56 (≈ 2.86 µM) | 0.007 (≈ 0.0128 µM) | 0.007 (≈ 0.0128 µM) | > 100 | 1.56 (≈ 2.86 µM) | 3.13 (≈ 5.74 µM) | 1.56 (≈ 2.86 µM) | 3.13 (≈ 5.74 µM) | 0.025 (≈ 0.0458 µM) | 0.007 (≈ 0.0128 µM) | > 100 | 3.13 (≈ 5.74 µM) | 3.13 (≈ 5.74 µM) | 3.13 (≈ 5.74 µM) | 1.56 (≈ 2.86 µM) | MIC (S.marcescens ATCC27117): 0.025 µg/mL (≈ 0.0458 µM); MIC (S.marcescens C1052): 0.05 µg/mL (≈ 0.0916 µM); MIC (S.pyogenes ATCC 8668): 0.007 µg/mL (≈ 0.0128 µM); MIC (S.pyogenes C4003): 0.004 µg/mL (≈ 0.00733 µM); MIC (S.typhimurium C4045): 0.025 µg/mL (≈ 0.0458 µM)
Nc1nc(/C(=N/O)C(=O)N[C@@H]2C(=O)N3C(C(=O)[O-])=C(C[n+]4ccc5[nH]c(=O)[nH]c5c4)CS[C@H]23)ns1 [Ex. 7, 7-β-[(Z)-2-(5-Amino-1,2,4-thiadiazol-3-yl)-2-hydroxyiminoacetamido]-3-[2-(1H, 3H)-oxo-imidazo[4,5-c]pyridiniummethyl]-3-cephem-4-carboxylate] | 0.1 (≈ 0.193 µM) | 0.1 (≈ 0.193 µM) | 0.025 (≈ 0.0483 µM) | 0.05 (≈ 0.0966 µM) | 6.25 (≈ 12.1 µM) | 1.56 (≈ 3.01 µM) | 0.025 (≈ 0.0483 µM) | 1.56 (≈ 3.01 µM) | > 100 | 12.5 (≈ 24.2 µM) | 50 (≈ 96.6 µM) | 6.25 (≈ 12.1 µM) | 50 (≈ 96.6 µM) | 0.1 (≈ 0.193 µM) | 0.5 (≈ 0.966 µM) | > 100 | 0.78 (≈ 1.51 µM) | 1.56 (≈ 3.01 µM) | 6.25 (≈ 12.1 µM) | 3.13 (≈ 6.05 µM) | MIC (S.marcescens ATCC27117): 0.1 µg/mL (≈ 0.193 µM); MIC (S.marcescens C1052): 0.2 µg/mL (≈ 0.386 µM); MIC (S.pyogenes ATCC 8668): 0.1 µg/mL (≈ 0.193 µM); MIC (S.pyogenes C4003): 0.2 µg/mL (≈ 0.386 µM); MIC (S.typhimurium C4045): 0.1 µg/mL (≈ 0.193 µM)
Nc1nc(/C(=N/OCC(=O)O)C(=O)N[C@@H]2C(=O)N3C(C(=O)[O-])=C(C[n+]4ccc5[nH]c(=O)[nH]c5c4)CS[C@H]23)ns1 [Ex. 8, 7-β-[(Z)-2-(5-Amino-1,2,4-thiadiazol-3-yl)-2-carboxymethoxyiminoacetamido]-3-[2-(1H,3H)-oxo-imidazo[4,5-c]pyridiniummethyl]-3-cephem-4-carboxylate] | 0.013 (≈ 0.0226 µM) | 0.013 (≈ 0.0226 µM) | 0.013 (≈ 0.0226 µM) | 0.05 (≈ 0.0869 µM) | 3.13 (≈ 5.44 µM) | 0.782 (≈ 1.36 µM) | 0.013 (≈ 0.0226 µM) | 0.05 (≈ 0.0869 µM) | > 100 | 3.13 (≈ 5.44 µM) | 3.13 (≈ 5.44 µM) | 3.13 (≈ 5.44 µM) | 6.25 (≈ 10.9 µM) | 0.05 (≈ 0.0869 µM) | 0.025 (≈ 0.0434 µM) | > 100 | 0.78 (≈ 1.36 µM) | 1.56 (≈ 2.71 µM) | 3.13 (≈ 5.44 µM) | 1.56 (≈ 2.71 µM) | MIC (S.marcescens ATCC27117): 0.1 µg/mL (≈ 0.174 µM); MIC (S.marcescens C1052): 0.2 µg/mL (≈ 0.347 µM); MIC (S.pyogenes ATCC 8668): 0.1 µg/mL (≈ 0.174 µM); MIC (S.pyogenes C4003): 0.196 µg/mL (≈ 0.341 µM); MIC (S.typhimurium C4045): 0.05 µg/mL (≈ 0.0869 µM)
Nc1nc(/C(=N/OCF)C(=O)N[C@@H]2C(=O)N3C(C(=O)[O-])=C(C[n+]4ccc5[nH]c(=O)[nH]c5c4)CS[C@H]23)ns1 [Ex. 9, 7-β-[(Z)-2-(5-Amino-1,2,4-thiadiazol-3-yl)-2-fluoromethoxyiminoacetamido]-3-[2-(1H, 3H)-oxo-imidazo[4,5-c]pyridiniummethyl]-3-cephem-4-carboxylate] | 0.013 (≈ 0.0237 µM) | 0.013 (≈ 0.0237 µM) | 0.007 (≈ 0.0127 µM) | 0.026 (≈ 0.0473 µM) | 0.004 (≈ 0.00728 µM) | 1.56 (≈ 2.84 µM) | 0.002 (≈ 0.00364 µM) | 0.004 (≈ 0.00728 µM) | > 100 | 1.56 (≈ 2.84 µM) | 0.78 (≈ 1.42 µM) | 0.78 (≈ 1.42 µM) | 3.13 (≈ 5.7 µM) | 0.025 (≈ 0.0455 µM) | 0.004 (≈ 0.00728 µM) | > 100 | 1.56 (≈ 2.84 µM) | 3.13 (≈ 5.7 µM) | 1.56 (≈ 2.84 µM) | 0.78 (≈ 1.42 µM) | MIC (S.marcescens ATCC27117): 0.007 µg/mL (≈ 0.0127 µM); MIC (S.marcescens C1052): 0.004 µg/mL (≈ 0.00728 µM); MIC (S.pyogenes ATCC 8668): 0.007 µg/mL (≈ 0.0127 µM); MIC (S.pyogenes C4003): 0.007 µg/mL (≈ 0.0127 µM); MIC (S.typhimurium C4045): 0.007 µg/mL (≈ 0.0127 µM)
